Literature values as cited in US12029741B1, “5 beta dihydrotestosterone pharmaceutical formulations and related methods” (priority 2021, dated 2024).

How the values were obtained:
Vascular Vessels = settings: result in words
[1] = transdermal treatment; called an estimate

| Structure (SMILES) | efficacy as a vasodilator compared with testosterone (Vascular Vessels) | terminal half-life [1] |
| --- | --- | --- |
| C[C@]12CCC(=O)C[C@H]1CC[C@@H]1[C@@H]2CC[C@]2(C)[C@@H](O)CC[C@@H]12 [5β-DHT, 17β-hydroxy-5β-androstan-3-one] | more efficacious and/or potent than testosterone | – |
| C[C@]12CCC(=O)C[C@@H]1CC[C@@H]1[C@@H]2CC[C@]2(C)[C@@H](O)CC[C@@H]12 [5α-DHT, 5α-dihydrotestosterone] | less efficacious than testosterone | 2.83 h |
| C[C@]12CC[C@H]3[C@@H](CCC4=CC(=O)CC[C@@]43C)[C@@H]1CC[C@@H]2O [testosterone] | – | 1.29 h |
